Target: T1, KDM4B (Homo sapiens, UniProt O94953)
T1 sequence (O94953 1-500): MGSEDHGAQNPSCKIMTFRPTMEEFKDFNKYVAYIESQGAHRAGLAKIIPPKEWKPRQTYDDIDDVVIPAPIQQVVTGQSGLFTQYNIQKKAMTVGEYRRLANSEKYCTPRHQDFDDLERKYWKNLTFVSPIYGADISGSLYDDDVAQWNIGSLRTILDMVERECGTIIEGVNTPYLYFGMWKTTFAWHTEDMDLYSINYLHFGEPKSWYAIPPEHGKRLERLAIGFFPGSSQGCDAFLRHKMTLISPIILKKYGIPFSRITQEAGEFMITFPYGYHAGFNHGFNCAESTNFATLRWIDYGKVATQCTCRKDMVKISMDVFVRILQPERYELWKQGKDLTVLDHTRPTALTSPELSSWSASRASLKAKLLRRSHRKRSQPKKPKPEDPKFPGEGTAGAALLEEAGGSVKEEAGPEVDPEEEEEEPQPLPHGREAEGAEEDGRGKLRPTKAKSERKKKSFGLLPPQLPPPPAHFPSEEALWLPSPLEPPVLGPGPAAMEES
Experiment: 1H-15N TROSY-HSQC NMR shifts
Format: biochemical

IC50: ~10 nM
SMILES: O=C(NCCCc1ccccc1)c1cccc(-c2cc(O)c3ncccc3c2)c1 [B3, NCGC00244536]
